Blank lines part the entries; values can stand above or below the compound they belong to.
Experiments:
[1] = test system: retinal ganglion cells; test: Ischemia-induced retinal ganglion cell death in Long-Evans rats (high IOP insult, histology); assay type: in vivo; conditions: topical; for percent of RGC protected from ischemic insult (FIG. 4): two drops before 60 min ischemia at 110 mmHg, Compound A 2.5% ophthalmic suspension or 0.2% brimonidine tartrate, histology at 7 days; for retinal thinning of inner retina (GCL, IPL) after high IOP (FIG. 2): versus healthy contralateral eye, 7 days
Description: Treatment groups of 10 male Long Evans rats, six to eight weeks of age, were anesthetized by i.p. injection of a combination of ketamine (80 mg/kg) and xylazine (8 mg/kg). Additional ketamine was administered as needed to maintain appropriate anesthetic depth, and body temperature was maintained by use of an isothermal pad placed under the animal. Once under anesthesia, topical anesthetic (0.5% proparacaine hydrochloride, single drop) was applied to the cornea of the right eye. […] Several minutes after the second treatment, the anterior chamber of the right eye was cannulated with a 30G needle connected to an elevated reservoir of sterile Hanks balanced salt solution with a fluid level 59 inches above eye level (equivalent to a hydrostatic pressure of 110 mmHg) behind a closed stopcock. Five minutes after the second treatment (fifteen minutes after application of topical anesthetic), the stopcock was opened, and the rise in pressure was directly visualized by inflation of the globe. Animals that suffered an injury to the iris or cornea (beyond the single entry point) were excluded from the study. Sixty minutes after inducing the rise in pressure, the ischemic injury was terminated by closing the stopcock and removing the cannula. The needle entry wound was sealed with veterinary tissue adhesive and the animals allowed to recover from anesthesia before being returned to housing.
Seven days after ischemic injury animals were sacrificed by CO2 inhalation and globes dissected with the proximal optic nerves intact. The anterior chamber was removed, and the eyes were fixed for 30 minutes in 4% paraformaldehyde/PBS, followed by overnight incubation in 30% sucrose. Fixed eyes were trimmed of additional connective tissue and cut along a sagittal plane to generate a flat face for embedding, and the exposed retinal edge was attached to the sclera with tissue adhesive. The eye was infiltrated with increasing strengths of JB-4 embedding medium (glycol methacrylate; GMA), followed by embedding in JB-4 at 4° C. for sagittal sectioning. Optic nerves were co-embedded with their paired retina for transverse sectioning. Embedded tissues were sectioned through or near the optic nerve head at a thickness of 2 μm, and collected on slides for further analysis.
For histological analysis of retinas, sections were stained with 1% toluidine blue in absolute ethanol for 40 seconds, and cover slipped for microscopic examination. Images were captured using cellSens Dimension software on an Olympus BX61 upright microscope with a motorized stage, using a 20× objective and a resolution of 169 nm/pixel, and stitched together using the multiple image alignment procedure of the software. Five locations were chosen at random from across the retina, avoiding areas of extreme curvature or extreme histological disruption, and the thickness of the retinal layers was assessed, as follows: ganglion cells (GCL; count of large, round nuclei in layer near retinal surface in 100 μm region centered on chosen location), inner plexiform layer (IPL; distance from nuclei in ganglion cell layer to nuclei in inner nuclear layer), inner nuclear layer (INL), outer plexiform layer (OPL; distance from nuclei in INL to nuclei in outer nuclear layer), outer nuclear layer (ONL), and total retinal thickness (TR distance from retinal surface above nerve fiber layer to edge of ONL). […]

[2] = molecular target: T1, A2A adenosine receptor (Homo sapiens, UniProt P29274); test: Adenosine A2A receptor binding, A1 > A2A selectivity; conditions: ratio Ki A2A / Ki A1
T1 construct: expressed in transfected cells; host or cells: CHO cells
T1 sequence (P29274 whole entry): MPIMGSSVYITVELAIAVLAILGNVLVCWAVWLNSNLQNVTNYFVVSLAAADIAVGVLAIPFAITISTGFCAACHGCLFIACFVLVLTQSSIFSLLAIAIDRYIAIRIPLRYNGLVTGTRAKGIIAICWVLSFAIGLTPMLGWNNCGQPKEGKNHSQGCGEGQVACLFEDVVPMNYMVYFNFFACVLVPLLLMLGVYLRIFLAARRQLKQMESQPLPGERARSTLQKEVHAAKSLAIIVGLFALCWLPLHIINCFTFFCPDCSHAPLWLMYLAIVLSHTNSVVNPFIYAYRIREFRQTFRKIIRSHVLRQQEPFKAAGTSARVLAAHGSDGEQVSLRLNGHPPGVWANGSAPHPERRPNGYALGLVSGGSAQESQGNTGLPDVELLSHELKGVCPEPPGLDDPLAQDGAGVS

[3] = test system: retinal ganglion cells; conditions: nerve crush, acute and chronic ocular hypertension models; cited from earlier work
[4] = test system: nerve fiber layer of the retina (RNFL); conditions: topical 0.2% solution, 12 months, compared to timolol; cited from earlier work
[5] = cited from earlier work; for study participants who discontinued the study due to adverse events: Low-Pressure Glaucoma Treatment Study

Compound: O=[N+]([O-])OC[C@H]1O[C@@H](n2cnc3c(NC4CCCC4)ncnc32)[C@H](O)[C@@H]1O [Compound A, ((2R,3S,4R,5R)-5-(6-(cyclopentylamino)-9H-purin-9-yl)-3,4-dihydroxytetrahydrofuran-2-yl)methyl nitrate]
percent of RGC protected from ischemic insult (FIG. 4) [1]: 100%
percentage of protection across retinal layers (FIG. 3) ([1]; two drops before ischemia, relative to vehicle and brimonidine): greater relative to the vehicle, and slightly greater than the effects of brimonidine
retinal thinning of inner retina (GCL, IPL) after high IOP (FIG. 2) ([1]; two drops before ischemia): blocked

A1 > A2A SELECTIVITY [KiA2(nm)/KiA1(nm)] [2]: >9434
Compound: O=[N+]([O-])OC[C@H]1O[C@@H](n2cnc3c(NC4CCOC4)ncnc32)[C@H](O)[C@@H]1O (stereo partly drawn) [Compound D, ((2R,3S,4R,5R)-3,4-dihydroxy-5-(6-(tetrahydrofuran-3-ylamino)-9H-purin-9-yl)tetrahydrofuran-2-yl)methyl nitrate]

Compound: Brc1c(NC2=NCCN2)ccc2nccnc12 [brimonidine]
percent of RGC protected from ischemic insult (FIG. 4) [1]: around 80%
retinal thinning of inner retina (GCL, IPL) after high IOP (FIG. 2) ([1]; two drops before ischemia): blocked
RGC survival [3]: improved RGC survival
loss in thickness of the nerve fiber layer of the retina (RNFL) [4]: reduce the loss in thickness of the nerve fiber layer of the retina
loss of visual field ([5]; 0.2% brimonidine, mean 30.0 month follow up, low pressure glaucoma, compared to timolol control): slow the loss of visual field
study participants who discontinued the study due to adverse events [5]: 28.3%

Compound: CC(C)(C)NC[C@H](O)COc1nsnc1N1CCOCC1 [timolol]
study participants who discontinued the study due to adverse events [5]: 11.4%
